This note sets out measurements from ChEMBL document CHEMBL4715723, “Discovery and development of benzo-[1,2,4]-triazolo-[1,4]-oxazepine GPR142 agonists for the treatment of diabetes” (Bioorg Med Chem Lett, 2016).

Data set [1] deals with T1, Probable G-protein coupled receptor 142 (Homo sapiens, UniProt Q7Z601).
T1 sequence (Q7Z601 whole entry): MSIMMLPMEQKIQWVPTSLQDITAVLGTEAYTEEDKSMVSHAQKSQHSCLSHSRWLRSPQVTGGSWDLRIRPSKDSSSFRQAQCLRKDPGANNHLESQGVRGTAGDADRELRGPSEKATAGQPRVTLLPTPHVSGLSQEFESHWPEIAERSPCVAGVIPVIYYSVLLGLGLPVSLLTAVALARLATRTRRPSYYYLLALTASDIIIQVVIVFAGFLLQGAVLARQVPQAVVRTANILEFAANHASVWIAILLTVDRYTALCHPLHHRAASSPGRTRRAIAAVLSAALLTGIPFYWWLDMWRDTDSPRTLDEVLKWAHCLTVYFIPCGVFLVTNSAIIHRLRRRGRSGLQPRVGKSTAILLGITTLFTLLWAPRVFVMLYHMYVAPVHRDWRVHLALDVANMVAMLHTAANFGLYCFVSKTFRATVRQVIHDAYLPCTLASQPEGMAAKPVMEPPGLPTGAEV
Nature of the data set: Agonist activity at human GPR142 expressed in CHO cells measured for 3 mins by Fluo-4M dye based FLIPR assay. It is filed as cell-based. The following applies: read-out: IC50 (the source's name).

The target of data set [2] is T2, Probable G-protein coupled receptor 142 (Mus musculus, UniProt Q7TQN9).
T2 sequence (Q7TQN9 whole entry): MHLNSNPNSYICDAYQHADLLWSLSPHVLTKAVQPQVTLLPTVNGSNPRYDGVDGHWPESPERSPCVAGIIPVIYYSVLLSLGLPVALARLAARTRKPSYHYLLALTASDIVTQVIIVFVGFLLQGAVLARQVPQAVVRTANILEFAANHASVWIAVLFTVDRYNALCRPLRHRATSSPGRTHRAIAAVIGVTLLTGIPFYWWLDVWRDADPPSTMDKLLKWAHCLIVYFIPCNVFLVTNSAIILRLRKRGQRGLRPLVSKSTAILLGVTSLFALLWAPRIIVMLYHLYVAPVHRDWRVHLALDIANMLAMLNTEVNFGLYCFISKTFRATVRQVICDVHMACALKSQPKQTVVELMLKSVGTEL
Briefly: Agonist activity at mouse GPR142 expressed in CHO cells measured for 3 mins by Fluo-4M dye based FLIPR assay. The following applies: read-out: IC50 (the source's name). Type of data set: cell-based.

The target in the next data set is Cytochrome P450 2C9 (Homo sapiens, UniProt P11712). Briefly: Inhibition of human liver microsomes CYP2C9 using diclofenac as substrate by MUX-MS/MS analysis. It is filed as ADME, Microsome.
Cytochrome P450 2C9, sequence (P11712 whole entry): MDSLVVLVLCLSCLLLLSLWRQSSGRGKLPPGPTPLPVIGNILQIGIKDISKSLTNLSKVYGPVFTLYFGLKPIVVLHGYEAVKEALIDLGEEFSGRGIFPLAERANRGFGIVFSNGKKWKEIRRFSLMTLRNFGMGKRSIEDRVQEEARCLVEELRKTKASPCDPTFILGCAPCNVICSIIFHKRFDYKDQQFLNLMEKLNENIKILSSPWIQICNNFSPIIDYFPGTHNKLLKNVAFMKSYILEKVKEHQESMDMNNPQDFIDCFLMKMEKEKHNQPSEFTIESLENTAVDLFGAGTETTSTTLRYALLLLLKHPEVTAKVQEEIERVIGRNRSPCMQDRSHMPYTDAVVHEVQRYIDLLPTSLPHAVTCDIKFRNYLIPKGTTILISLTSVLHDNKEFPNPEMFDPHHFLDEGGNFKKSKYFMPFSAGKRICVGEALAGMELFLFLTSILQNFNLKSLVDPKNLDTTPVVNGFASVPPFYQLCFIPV
Data set [3] concerns the target Voltage-gated inwardly rectifying potassium channel KCNH2 (Homo sapiens, UniProt Q12809). Nature of the data set: Inhibition of human ERG expressed in HEK293 cells assessed as reduction in S35-MK-0499 binding. It is filed as cell-based.
The target in another data set is Cytochrome P450 3A4 (Homo sapiens, UniProt P08684). Nature of the data set: Inhibition of human liver microsomes CYP3A4 using testosterone as substrate by MUX-MS/MS analysis. Type of data set: ADME, Microsome.
Cytochrome P450 3A4, sequence (P08684 whole entry): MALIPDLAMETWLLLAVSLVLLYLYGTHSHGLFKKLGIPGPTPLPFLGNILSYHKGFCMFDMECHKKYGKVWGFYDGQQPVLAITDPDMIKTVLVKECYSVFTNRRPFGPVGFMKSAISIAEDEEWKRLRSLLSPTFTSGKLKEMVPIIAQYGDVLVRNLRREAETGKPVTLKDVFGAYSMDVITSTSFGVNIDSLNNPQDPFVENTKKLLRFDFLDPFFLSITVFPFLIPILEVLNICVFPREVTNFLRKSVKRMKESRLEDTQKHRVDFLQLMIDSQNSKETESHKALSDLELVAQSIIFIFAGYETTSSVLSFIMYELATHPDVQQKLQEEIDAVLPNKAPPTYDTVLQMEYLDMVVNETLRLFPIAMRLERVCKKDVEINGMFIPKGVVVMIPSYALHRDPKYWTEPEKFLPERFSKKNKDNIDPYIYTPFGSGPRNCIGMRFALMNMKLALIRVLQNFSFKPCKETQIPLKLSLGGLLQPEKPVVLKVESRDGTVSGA
The target of the next data set is Cytochrome P450 2D6 (Homo sapiens, UniProt P10635). Nature of the data set: Inhibition of human liver microsomes CYP2D6 using dextromethorphan as substrate by MUX-MS/MS analysis. Type of data set: ADME, Microsome.
Cytochrome P450 2D6, sequence (P10635 whole entry): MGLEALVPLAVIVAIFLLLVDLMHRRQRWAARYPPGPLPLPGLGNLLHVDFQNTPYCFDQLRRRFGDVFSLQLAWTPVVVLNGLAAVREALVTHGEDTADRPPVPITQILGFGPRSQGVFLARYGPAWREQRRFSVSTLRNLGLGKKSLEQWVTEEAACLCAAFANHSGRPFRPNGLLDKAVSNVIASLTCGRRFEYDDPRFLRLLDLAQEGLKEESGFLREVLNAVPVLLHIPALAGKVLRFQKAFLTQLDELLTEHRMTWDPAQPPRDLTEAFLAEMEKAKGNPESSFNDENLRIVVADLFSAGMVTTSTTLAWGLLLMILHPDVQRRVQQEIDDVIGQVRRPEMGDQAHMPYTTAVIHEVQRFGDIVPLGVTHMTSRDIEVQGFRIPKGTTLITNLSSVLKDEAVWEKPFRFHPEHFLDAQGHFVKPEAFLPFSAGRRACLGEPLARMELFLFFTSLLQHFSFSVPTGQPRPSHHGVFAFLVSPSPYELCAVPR
Data set [4] is described as follows: Volume of distribution at steady state in rat at 2 mg/kg, po or 1 mg/kg, iv. Type of data set: ADME, organism-based. The following applies: in vivo, read-out: Vdss.
Data set [5] is described as follows: Half life in rat at 2 mg/kg, po or 1 mg/kg, iv. Type of data set: ADME, organism-based. The following applies: in vivo.
Data set [6] can be described thus: Clearance in rat at 2 mg/kg, po or 1 mg/kg, iv. It is filed as ADME, organism-based. The following applies: in vivo.
Data set [7] can be described thus: Oral bioavailability in rat at 2 mg/kg. It is filed as ADME, organism-based. The following applies: in vivo.
Data set [8] in a line: Protein binding in rat plasma assessed as unbound fraction. Type of data set: ADME, cell-free.

Voltage-gated inwardly rectifying potassium channel KCNH2, sequence (Q12809 whole entry): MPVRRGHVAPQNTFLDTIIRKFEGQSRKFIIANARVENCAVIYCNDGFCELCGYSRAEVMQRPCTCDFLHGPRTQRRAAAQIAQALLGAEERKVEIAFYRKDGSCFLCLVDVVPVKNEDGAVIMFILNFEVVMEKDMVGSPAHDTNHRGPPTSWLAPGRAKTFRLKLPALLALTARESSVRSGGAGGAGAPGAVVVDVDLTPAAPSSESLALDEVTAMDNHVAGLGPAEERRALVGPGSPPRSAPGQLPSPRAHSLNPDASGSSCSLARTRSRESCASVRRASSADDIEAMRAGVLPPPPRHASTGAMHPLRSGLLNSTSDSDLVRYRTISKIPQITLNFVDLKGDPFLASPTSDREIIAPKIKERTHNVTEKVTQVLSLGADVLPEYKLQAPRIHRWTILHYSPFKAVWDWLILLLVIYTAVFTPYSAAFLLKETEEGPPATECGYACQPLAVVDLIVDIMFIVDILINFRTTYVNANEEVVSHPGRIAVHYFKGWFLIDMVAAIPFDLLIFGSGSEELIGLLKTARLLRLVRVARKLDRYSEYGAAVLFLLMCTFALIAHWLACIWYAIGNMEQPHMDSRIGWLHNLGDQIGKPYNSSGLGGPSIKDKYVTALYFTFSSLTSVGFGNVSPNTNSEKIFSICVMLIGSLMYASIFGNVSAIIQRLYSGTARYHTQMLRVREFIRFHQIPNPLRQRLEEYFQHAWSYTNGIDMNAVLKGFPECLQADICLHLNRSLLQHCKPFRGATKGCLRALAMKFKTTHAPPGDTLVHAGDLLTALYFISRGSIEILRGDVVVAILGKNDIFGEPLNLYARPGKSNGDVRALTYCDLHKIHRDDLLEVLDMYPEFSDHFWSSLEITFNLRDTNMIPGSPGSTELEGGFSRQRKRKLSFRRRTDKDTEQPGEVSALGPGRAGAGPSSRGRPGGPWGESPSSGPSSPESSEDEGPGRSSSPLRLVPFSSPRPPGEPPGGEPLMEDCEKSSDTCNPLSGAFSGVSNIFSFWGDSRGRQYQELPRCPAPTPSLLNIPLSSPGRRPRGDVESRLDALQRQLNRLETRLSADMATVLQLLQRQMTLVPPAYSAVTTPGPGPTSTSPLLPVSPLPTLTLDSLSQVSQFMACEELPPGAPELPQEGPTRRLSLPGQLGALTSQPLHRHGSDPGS

For the molecule `O=C(Nc1ccc(Cl)c(Cl)c1)N1CCCc2ccc(-c3ccncc3)cc21`, the EC50 in data set [1] and in [2] was greater than 20 µM throughout.
For the molecule `COc1cccc(NC(=O)N2CCOc3ccc(-c4ccncc4)cc3C2)c1`, the EC50 in [1] turned out to be 0.249 µM; in data set [2], 0.305 µM.
For `O=C(Nc1ccc(Cl)c(Cl)c1)N1Cc2ccc(-c3ccncc3)cc2C1`, in that order: greater than 20 µM and greater than 20 µM.
For the molecule `N#Cc1cccc(NC(=O)N2CCOc3ccc(-n4ccnc4)cc3C2)c1`, in [1], the EC50 stood at 0.11 µM.
With `Cc1cc(-c2ccc3c(c2)-c2nnc(Oc4ccccc4OC(F)(F)F)n2CCO3)ccn1`, the IC50 is 26.1 µM at Cytochrome P450 2C9, 2.84 µM in data set [3], greater than 50 µM against Cytochrome P450 3A4 and 8.65 µM against Cytochrome P450 2D6. Also, the EC50 in [1] came to 0.089 µM.
On the same counts, the results for `Cc1cc(-c2ccc3c(c2)-c2nnc(Oc4cccc(Cl)c4)n2CCO3)ccn1` are greater than 50 µM, 0.931 µM, greater than 50 µM, 7.02 µM and 0.058 µM.
Turning to `O=C(Nc1cccc(Cl)c1)N1CCOc2ccc(-c3ccncc3)cc2C1`, the Vd in [4] amounted to 2 L/kg. Moreover, the EC50 in data set [1] came to 0.108 µM; in [2], 0.164 µM. The half-life in data set [5] was 0.66 h. The clearance in data set [6] amounted to 3.37 L/h/kg. For the same molecule, in data set [7], the bioavailability came out at 1%. For the same molecule, in data set [8], the fraction unbound amounted to 0.0086.
Turning to `N#Cc1cccc(NC(=O)N2CCOc3ccc(-c4ccnc(N)c4)cc3C2)c1`, the EC50 in [1] worked out at 0.81 µM; in [2] it was 0.448 µM.
On to `CN1CCN(C(=O)Nc2ccc(Cl)c(Cl)c2)Cc2cc(-c3ccncc3)ccc21`, for which the EC50 was greater than 20 µM in data set [1] and 2.57 µM in data set [2].
Consider `COc1cccc(NC(=O)N2CCOc3ccc(-c4ccncc4C)cc3C2)c1`, for which the EC50 in data set [1] is 0.394 µM; in data set [2], 1.18 µM.
Turning to `Cc1cc(-c2ccc3c(c2)-c2nnc(Nc4cccc(OC(F)(F)F)c4)n2CCO3)ccn1`, the half-maximal inhibitory concentration (IC50) is 1.39 µM against Cytochrome P450 2C9, 0.236 µM in [3], greater than 50 µM at Cytochrome P450 3A4 and 1.72 µM on Cytochrome P450 2D6. Further, the Vd in data set [4] was found to be 1.9 L/kg. Further, in data set [1], the EC50 came to 0.045 µM. The molecule further had a half-life in data set [5] of 2 h. The same molecule showed a clearance in [6] of 0.66 L/h/kg. Further, the fraction unbound in [8] is 0.0949.
For `O=C(Nc1cccc(-c2ccccc2)c1)N1CCOc2ccc(-c3ccncc3)cc2C1`, the EC50 in [1] is 0.343 µM; in data set [2], 0.062 µM.
For `O=C(Nc1ccc(F)c(Cl)c1)N1CCOc2ccc(-c3ccncc3)cc2C1`, in that order: 0.132 µM and 0.613 µM.
For `O=C(Nc1cccc(Oc2ccccc2)c1)N1CCOc2ccc(-c3ccncc3)cc2C1`, in that order: 1.72 µM and 0.146 µM.
For `CCCCN1CCN(C(=O)Nc2ccc(Cl)c(Cl)c2)Cc2cc(-c3ccncc3)ccc21`, in that order: greater than 20 µM and 4.5 µM.
`COc1cccc(NC(=O)N2CCOc3ccc(-c4ccnc(OC)c4)cc3C2)c1`: the EC50 stood at 2.8 µM in data set [1] and 2.57 µM in data set [2].
On to `O=C(Nc1ccc(Cl)c(Cl)c1)N1CCc2ccc(-c3ccncc3)cc2C1`, for which the values for the EC50 in data set [1] and in data set [2] were 1.85 µM and 1.05 µM, respectively.
As to `O=C(Nc1ccc(Cl)c(Cl)c1)N1CCCc2ccc(-c3ccncc3)cc2C1`, the EC50 worked out at 0.839 µM in [1] and 0.59 µM in [2].
For `COc1cccc(NC(=O)N2CCOc3ccc(-c4ccncc4OC)cc3C2)c1`, in that order: 0.187 µM and 0.486 µM.
On the same counts, the results for `O=C(Nc1ccc(F)cc1)N1CCOc2ccc(-c3ccncc3)cc2C1` are 1.22 µM and 2.61 µM.
Consider `Cc1cc(-c2ccc3c(c2)-c2nnc(Oc4cccc(OC(F)(F)F)c4)n2CCO3)ccn1`, for which the concentration for half-maximal inhibition (IC50) was 14.3 µM against Cytochrome P450 2C9, 0.693 µM in data set [3], greater than 50 µM against Cytochrome P450 3A4 and 1.95 µM against Cytochrome P450 2D6. The EC50 in data set [1] is 0.078 µM.
Consider `COc1cccc(NC(=O)N2CCOc3ccc(-c4ccnc(C)c4)cc3C2)c1`, for which the EC50 in [1] is 0.374 µM.
`O=C(Nc1cccc(Cl)c1F)N1CCOc2ccc(-c3ccncc3)cc2C1`: the EC50 in [1] was 0.163 µM; in data set [2], 0.059 µM.
For `O=C(Nc1cccc(Cl)c1Cl)N1CCOc2ccc(-c3ccncc3)cc2C1`, in that order: 0.708 µM and 0.157 µM.
For the molecule `Cc1cc(-c2ccc3c(c2)-c2nnc(Nc4cccc(C(F)(F)F)c4)n2CCO3)ccn1`, the IC50 amounted to 1.96 µM against Cytochrome P450 2C9, 0.388 µM in data set [3], 48.3 µM at Cytochrome P450 3A4 and 0.326 µM against Cytochrome P450 2D6. Also, in data set [1], the EC50 turned out to be 0.063 µM.
Consider `COc1cccc(NC(=O)N2CCOc3ccc(-c4ccnc5ccccc45)cc3C2)c1`, for which the results for the EC50 in data set [1] and in data set [2] were 0.962 µM and 0.216 µM, respectively.
With `Cc1cc(-c2ccc3c(c2)-c2nnc(Cc4cccc(Cl)c4)n2CCO3)ccn1`, the IC50 against Cytochrome P450 2C9 turned out to be 1.45 µM; in data set [3] it was 3.86 µM; against Cytochrome P450 3A4, 1.06 µM; on Cytochrome P450 2D6, 1.01 µM. Further, the EC50 in data set [1] came to 0.593 µM.
Turning to `O=C(Cc1cccc(C(F)(F)F)c1)N1CCOc2ccc(-c3ccncc3)cc2C1`, the EC50 in data set [1] is 1.64 µM; in [2] it was 0.611 µM.
For `O=S(=O)(Cc1cccc(C(F)(F)F)c1)N1CCOc2ccc(-c3ccncc3)cc2C1`, in that order: 2.29 µM and 0.157 µM.
Regarding `O=C(Nc1ccccc1)N1CCOc2ccc(-c3ccncc3)cc2C1`, the EC50 in data set [1] was 0.793 µM; in [2] it was 0.851 µM.
Turning to `N#Cc1cccc(NC(=O)N2CCOc3ccc(-c4ccncc4)cc3C2)c1`, the EC50 in [1] turned out to be 0.08 µM; in [2], 0.079 µM.
In the case of `COc1cccc(NC(=O)N2CCOc3ccc(-c4ccncn4)cc3C2)c1`, the EC50 in [1] worked out at 1.6 µM.
Turning to `COc1cccc(N(C)C(=O)N2CCOc3ccc(-c4ccncc4)cc3C2)c1`, the EC50 in data set [1] and in data set [2] was greater than 20 µM throughout.
In the case of `O=C(Nc1ccccc1F)N1CCOc2ccc(-c3ccncc3)cc2C1`, the results for the EC50 in data set [1] and in data set [2] were 13.1 µM and 0.604 µM, respectively.
Regarding `O=C(Nc1ccc(Cl)c(Cl)c1)N1CCNc2ccc(-c3ccncc3)cc2C1`, the figures for the EC50 in [1] and in [2] were 0.146 µM and 0.158 µM, respectively.
Turning to `COc1ccccc1NC(=O)N1CCOc2ccc(-c3ccncc3)cc2C1`, the EC50 in data set [1] was 0.517 µM; in [2], 0.092 µM.
For `O=C(Nc1ccc(Cl)c(Cl)c1)N1CCc2ccc(-c3ccncc3)cc21`, the EC50 in data set [1] was greater than 20 µM; in data set [2] it was 2.95 µM.
Consider `O=C(Nc1cccc(C(F)(F)F)c1)N1CCOc2ccc(-c3ccncc3)cc2C1`, for which the EC50 turned out to be 0.158 µM in [1] and 0.11 µM in [2].
On the same counts, the results for `O=C(Nc1cccc(F)c1)N1CCOc2ccc(-c3ccncc3)cc2C1` are 0.224 µM and 0.413 µM.
`FC(F)(F)c1cccc(Nc2nnc3n2CCOc2ccc(-c4ccncc4)cc2-3)c1`: the IC50 is 0.531 µM at Cytochrome P450 2C9, 0.557 µM in data set [3], 0.516 µM on Cytochrome P450 3A4 and 0.782 µM against Cytochrome P450 2D6. For the same molecule, the EC50 in [1] is 0.048 µM.
As to `COc1ccc(NC(=O)N2CCOc3ccc(-c4ccncc4)cc3C2)cc1`, the EC50 in [1] and in data set [2] was greater than 20 µM each time.
For `Cc1cc(-c2ccc3c(c2)-c2nnc(Oc4ccccc4Cl)n2CCO3)ccn1`, the IC50 on Cytochrome P450 2C9 was greater than 50 µM; in [3], 3.51 µM; at Cytochrome P450 3A4 it was greater than 50 µM; on Cytochrome P450 2D6, 24.3 µM. The EC50 in data set [1] is 0.102 µM.
